Laboratory results published in publication PMC5218480 (PLoS ONE, 2017).

Test system: MV-4-11 cells
Assay: Gene expression microarray analysis (Affymetrix PrimeView) and GSEA
Type: cell-based, human
Parameters: RFU PODN (11730768_x_at) / Fold change /veh PODN (11730768_x_at) / RFU LINC00158 (11744669_a_at) / Fold change /veh LINC00158 (11744669_a_at) / RFU DUSP10 (11751237_a_at) / Fold change /veh DUSP10 (11751237_a_at) / RFU ID3 (11757404_x_at) / Fold change /veh ID3 (11757404_x_at) / RFU PLEKHG5 (11737974_s_at) / Fold change /veh PLEKHG5 (11737974_s_at) / RFU LRRC4B (11730491_at) / Fold change /veh LRRC4B (11730491_at) / RFU GIMAP4 (11747438_a_at) / Fold change /veh GIMAP4 (11747438_a_at) / RFU KRT8 (11758183_x_at) / Fold change /veh KRT8 (11758183_x_at) / RFU CNN1 (11734310_a_at) / Fold change /veh CNN1 (11734310_a_at) / RFU VPS37D (11726825_at) / Fold change /veh VPS37D (11726825_at) / RFU C10orf10 (11716522_x_at) / Fold change /veh C10orf10 (11716522_x_at) / RFU KIR2DL2 /// KIR2DL4 /// KIR2DL5A /// KIR2DL5B /// KIR2DS1 /// KIR2DS2 /// KIR2DS3 /// KIR2DS4 /// KIR3DL3 /// KIR3DL3 /// KIR3DS1 (11738374_at) / Fold change /veh KIR2DL2 /// KIR2DL4 /// KIR2DL5A /// KIR2DL5B /// KIR2DS1 /// KIR2DS2 /// KIR2DS3 /// KIR2DS4 /// KIR3DL3 /// KIR3DL3 /// KIR3DS1 (11738374_at) / RFU C1QL1 (11718748_at) / Fold change /veh C1QL1 (11718748_at) / RFU TMPRSS4 (11747572_a_at) / Fold change /veh TMPRSS4 (11747572_a_at) / RFU HAMP (11756126_x_at) / Fold change /veh HAMP (11756126_x_at) / RFU RNFT2 (11725882_a_at) / Fold change /veh RNFT2 (11725882_a_at) / RFU NR4A2 (11747474_a_at) / Fold change /veh NR4A2 (11747474_a_at) / RFU ABCC12 (11746883_a_at) / Fold change /veh ABCC12 (11746883_a_at) / RFU TMEM136 (11760407_x_at) / Fold change /veh TMEM136 (11760407_x_at) / RFU CLDN22 /// WWC2 (11732394_at) / Fold change /veh CLDN22 /// WWC2 (11732394_at) / RFU HLA-DPB1 (11760878_x_at) / Fold change /veh HLA-DPB1 (11760878_x_at) / RFU SPINT1 (11716480_a_at) / Fold change /veh SPINT1 (11716480_a_at) / RFU GAP43 (11754022_s_at) / Fold change /veh GAP43 (11754022_s_at) / RFU A4GNT (11735810_at) / Fold change /veh A4GNT (11735810_at) / RFU PRB3 (11715151_x_at) / Fold change /veh PRB3 (11715151_x_at) / RFU TUBB4B (11761932_at) / Fold change /veh TUBB4B (11761932_at) / RFU CAPN14 (11732068_a_at) / Fold change /veh CAPN14 (11732068_a_at) / RFU TMCC2 (11721928_a_at) / Fold change /veh TMCC2 (11721928_a_at) / RFU IRGQ (11745062_a_at) / Fold change /veh IRGQ (11745062_a_at) / RFU FAM174B (11720279_a_at) / Fold change /veh FAM174B (11720279_a_at) / RFU TMPRSS4 (11748680_a_at) / Fold change /veh TMPRSS4 (11748680_a_at) / RFU FAM212B (11763350_a_at) / Fold change /veh FAM212B (11763350_a_at) / RFU PLEKHG5 (11743358_a_at) / Fold change /veh PLEKHG5 (11743358_a_at) / RFU ZSCAN30 (11745921_a_at) / Fold change /veh ZSCAN30 (11745921_a_at) / RFU CMKLR1 (11741424_a_at) / Fold change /veh CMKLR1 (11741424_a_at) / RFU LOC101060620 /// MAPK8IP1 (11723275_at) / Fold change /veh LOC101060620 /// MAPK8IP1 (11723275_at) / RFU SPTSSB (11747773_x_at) / Fold change /veh SPTSSB (11747773_x_at) / RFU PRSS12 (11739890_at) / Fold change /veh PRSS12 (11739890_at) / RFU BIN1 (11741810_x_at) / Fold change /veh BIN1 (11741810_x_at) / RFU WNT11 (11732464_a_at) / Fold change /veh WNT11 (11732464_a_at) / RFU C10orf10 (11716521_a_at) / Fold change /veh C10orf10 (11716521_a_at) / RFU C5orf56 (11738089_at) / Fold change /veh C5orf56 (11738089_at) / RFU CYB561 (11721691_x_at) / Fold change /veh CYB561 (11721691_x_at) / RFU ANKRD19P (11752326_a_at) / Fold change /veh ANKRD19P (11752326_a_at) / RFU OR2T12 /// OR2T33 /// OR2T8 (11738714_s_at) / Fold change /veh OR2T12 /// OR2T33 /// OR2T8 (11738714_s_at) / RFU VCAN (11748164_a_at) / Fold change /veh VCAN (11748164_a_at) / RFU JSRP1 (11732532_at) / Fold change /veh JSRP1 (11732532_at) / RFU KRTAP10-11 (11738290_x_at) / Fold change /veh KRTAP10-11 (11738290_x_at) / RFU MYO3A (11730013_a_at) / Fold change /veh MYO3A (11730013_a_at) / RFU EBF3 (11725865_a_at) / Fold change /veh EBF3 (11725865_a_at) / RFU CAMK2N1 (11719241_x_at) / Fold change /veh CAMK2N1 (11719241_x_at) / RFU C5orf56 (11738088_a_at) / Fold change /veh C5orf56 (11738088_a_at) / RFU OLFML3 (11715873_a_at) / Fold change /veh OLFML3 (11715873_a_at) / RFU LOC100653217 /// NTM (11731650_a_at) / Fold change /veh LOC100653217 /// NTM (11731650_a_at) / RFU MAPK11 (11762145_a_at) / Fold change /veh MAPK11 (11762145_a_at) / RFU FIZ1 (11724087_x_at) / Fold change /veh FIZ1 (11724087_x_at) / RFU OASL (11726364_x_at) / Fold change /veh OASL (11726364_x_at) / RFU SOX15 (11748057_x_at) / Fold change /veh SOX15 (11748057_x_at) / RFU CD79A (11719716_a_at) / Fold change /veh CD79A (11719716_a_at) / RFU HIST1H1D (11736915_at) / Fold change /veh HIST1H1D (11736915_at) / RFU CASKIN2 (11723855_a_at) / Fold change /veh CASKIN2 (11723855_a_at) / RFU LOC730098 (11760151_x_at) / Fold change /veh LOC730098 (11760151_x_at) / RFU OR4N2 (11742367_at) / Fold change /veh OR4N2 (11742367_at) / RFU PRRT2 (11749266_a_at) / Fold change /veh PRRT2 (11749266_a_at) / RFU SNX32 (11753110_a_at) / Fold change /veh SNX32 (11753110_a_at) / RFU CDHR5 (11726645_a_at) / Fold change /veh CDHR5 (11726645_a_at) / RFU RCAN1 (11760418_a_at) / Fold change /veh RCAN1 (11760418_a_at) / RFU FAM167A (11723789_a_at) / Fold change /veh FAM167A (11723789_a_at) / RFU FAM26E (11764081_at) / Fold change /veh FAM26E (11764081_at) / RFU ISYNA1 (11749810_s_at) / Fold change /veh ISYNA1 (11749810_s_at) / RFU ACY1 (11761880_at) / Fold change /veh ACY1 (11761880_at) / RFU 11764098_at / Fold change /veh 11764098_at / RFU SAMD14 (11745864_x_at) / Fold change /veh SAMD14 (11745864_x_at) / RFU NPB (11741838_a_at) / Fold change /veh NPB (11741838_a_at) / RFU TMPRSS6 (11731388_a_at) / Fold change /veh TMPRSS6 (11731388_a_at) / RFU KRTAP10-2 (11738614_at) / Fold change /veh KRTAP10-2 (11738614_at) / RFU ARHGAP8 /// PRR5-ARHGAP8 (11727945_x_at) / Fold change /veh ARHGAP8 /// PRR5-ARHGAP8 (11727945_x_at) / RFU KRTAP5-7 /// NADSYN1 (11734609_at) / Fold change /veh KRTAP5-7 /// NADSYN1 (11734609_at) / RFU RASL12 (11751679_a_at) / Fold change /veh RASL12 (11751679_a_at) / RFU CDKN2B (11736163_a_at) / Fold change /veh CDKN2B (11736163_a_at) / RFU PRF1 (11729649_at) / Fold change /veh PRF1 (11729649_at) / RFU, ZNF638 /// ZNF638-IT1 / Fold change vs veh, ZNF638 /// ZNF638-IT1 / RFU, PANK3 / Fold change vs veh, PANK3 / RFU, SH3YL1 / Fold change vs veh, SH3YL1 / RFU, ZEB2 / Fold change vs veh, ZEB2 / RFU, NRIP1 / Fold change vs veh, NRIP1 / RFU, PTTG1IP / Fold change vs veh, PTTG1IP / RFU, CAPN2 / Fold change vs veh, CAPN2 / RFU, MED14 / Fold change vs veh, MED14 / RFU, SNORA58 / Fold change vs veh, SNORA58 / RFU, C1orf63 / Fold change vs veh, C1orf63 / RFU, LRRFIP1 / Fold change vs veh, LRRFIP1 / RFU, NDUFAF7 / Fold change vs veh, NDUFAF7 / RFU, SLC12A2 / Fold change vs veh, SLC12A2 / RFU, IBTK / Fold change vs veh, IBTK / RFU, ESF1 / Fold change vs veh, ESF1 / Fold change vs veh, TMEM50B / RFU, TAOK1 / Fold change vs veh, TAOK1 / RFU, ACBD3 / Fold change vs veh, ACBD3 / RFU, TMA16 / Fold change vs veh, TMA16 / RFU, RWDD3 / Fold change vs veh, RWDD3 / RFU, BCAT1 / Fold change vs veh, BCAT1 / RFU, EDEM3 / Fold change vs veh, EDEM3 / RFU, TMEM33 / Fold change vs veh, TMEM33 / RFU, WDR75 / Fold change vs veh, WDR75 / RFU, AHCTF1 / Fold change vs veh, AHCTF1 / RFU, TFRC / Fold change vs veh, TFRC / RFU, ZDHHC17 / Fold change vs veh, ZDHHC17 / RFU, NOM1 / Fold change vs veh, NOM1 / RFU, ARL8B / Fold change vs veh, ARL8B / RFU, ZBTB11 / Fold change vs veh, ZBTB11 / RFU, TAMM41 / Fold change vs veh, TAMM41 / RFU, KIAA1704 /// LOC100996395 / Fold change vs veh, KIAA1704 /// LOC100996395 / RFU, ING1 / Fold change vs veh, ING1 / RFU, TRMT61B / Fold change vs veh, TRMT61B / RFU, FUBP3 / Fold change vs veh, FUBP3 / RFU, TP53 / Fold change vs veh, TP53 / RFU, TNKS2 / Fold change vs veh, TNKS2 / RFU, ZFP14 / Fold change vs veh, ZFP14 / RFU, ACTR2 / Fold change vs veh, ACTR2 / RFU, PPP3R1 / Fold change vs veh, PPP3R1 / RFU, PIK3R1 / Fold change vs veh, PIK3R1 / RFU, HNRNPA1 / Fold change vs veh, HNRNPA1 / RFU, RNF170 / Fold change vs veh, RNF170 / RFU, ZNF28 / Fold change vs veh, ZNF28 / RFU, RNGTT / Fold change vs veh, RNGTT / RFU, OGT / Fold change vs veh, OGT / RFU, BRD1 / Fold change vs veh, BRD1 / RFU, MARS / Fold change vs veh, MARS / RFU, ZNF655 / Fold change vs veh, ZNF655 / RFU, FAHD1 / Fold change vs veh, FAHD1 / RFU, BDP1 / Fold change vs veh, BDP1 / RFU, LRRCC1 / Fold change vs veh, LRRCC1 / RFU, ARID1A / Fold change vs veh, ARID1A / RFU, ZNF146 / Fold change vs veh, ZNF146 / RFU, ZNF330 / Fold change vs veh, ZNF330 / RFU, GPN3 / Fold change vs veh, GPN3 / RFU, C9orf123 / Fold change vs veh, C9orf123 / RFU, N4BP2L2 / Fold change vs veh, N4BP2L2 / RFU, ARFIP1 / Fold change vs veh, ARFIP1 / RFU, FAM179B / Fold change vs veh, FAM179B / RFU, BCL10 / Fold change vs veh, BCL10 / RFU, UHRF1BP1L / Fold change vs veh, UHRF1BP1L / RFU, BET1 / Fold change vs veh, BET1 / RFU, CNOT2 / Fold change vs veh, CNOT2 / RFU, ZNF268 / Fold change vs veh, ZNF268 / Fold change vs veh, ZNF507 / RFU, DGCR2 / Fold change vs veh, DGCR2 / RFU, WDSUB1 / Fold change vs veh, WDSUB1 / Fold change vs veh, HSP90B1 /// MIR3652 / RFU, ADSS / Fold change vs veh, ADSS / RFU, GK / Fold change vs veh, GK / RFU, ZNF148 / Fold change vs veh, ZNF148 / RFU, TAF9 / Fold change vs veh, TAF9 / RFU, SLC1A5 / Fold change vs veh, SLC1A5 / RFU, SLMO2 / Fold change vs veh, SLMO2 / RFU, ABCC4 / Fold change vs veh, ABCC4 / RFU, LOC101060439 /// RAP1B / Fold change vs veh, LOC101060439 /// RAP1B / RFU, RFX7 / Fold change vs veh, RFX7 / RFU, GTPBP10 / Fold change vs veh, GTPBP10 / RFU, CNEP1R1 / Fold change vs veh, CNEP1R1 / RFU, BIVM-ERCC5 /// ERCC5 / Fold change vs veh, BIVM-ERCC5 /// ERCC5 / RFU, ILF3 / Fold change vs veh, ILF3 / RFU 11762660_at / Fold change /veh 11762660_at / RFU VCAN (11757783_s_at) / Fold change /veh VCAN (11757783_s_at) / RFU DDX43 (11728927_at) / Fold change /veh DDX43 (11728927_at) / RFU KRT8 (11758188_x_at) / Fold change /veh KRT8 (11758188_x_at) / RFU NKD1 (11759106_at) / Fold change /veh NKD1 (11759106_at) / RFU SRD5A1 (11742802_a_at) / Fold change /veh SRD5A1 (11742802_a_at) / RFU TPSAB1 /// TPSB2 (11721975_s_at) / Fold change /veh TPSAB1 /// TPSB2 (11721975_s_at) / RFU GSTM3 (11746129_a_at) / Fold change /veh GSTM3 (11746129_a_at) / RFU IL23R (11737362_x_at) / Fold change /veh IL23R (11737362_x_at) / RFU TMEM51 (11727254_a_at) / Fold change /veh TMEM51 (11727254_a_at) / RFU PIWIL2 (11732686_x_at) / Fold change /veh PIWIL2 (11732686_x_at) / RFU ORM1 (11744905_x_at) / Fold change /veh ORM1 (11744905_x_at) / RFU CCDC152 (11743942_at) / Fold change /veh CCDC152 (11743942_at) / RFU ECM1 (11717891_a_at) / Fold change /veh ECM1 (11717891_a_at) / RFU IL23R (11748794_a_at) / Fold change /veh IL23R (11748794_a_at) / RFU TNFAIP8L3 (11732012_x_at) / Fold change /veh TNFAIP8L3 (11732012_x_at) / RFU MBOAT4 (11741988_at) / Fold change /veh MBOAT4 (11741988_at) / RFU 11764193_at / Fold change /veh 11764193_at / RFU TMEM53 (11763286_at) / Fold change /veh TMEM53 (11763286_at) / RFU MAGEB2 (11727129_at) / Fold change /veh MAGEB2 (11727129_at) / RFU TMEM200A (11744735_a_at) / Fold change /veh TMEM200A (11744735_a_at) / RFU CCDC152 (11751479_a_at) / Fold change /veh CCDC152 (11751479_a_at) / RFU FAM211A (11726209_a_at) / Fold change /veh FAM211A (11726209_a_at) / RFU RGS16 (11746705_a_at) / Fold change /veh RGS16 (11746705_a_at) / RFU VCAN (11755009_s_at) / Fold change /veh VCAN (11755009_s_at) / RFU RHOB (11743442_s_at) / Fold change /veh RHOB (11743442_s_at) / RFU RGS16 (11720943_a_at) / Fold change /veh RGS16 (11720943_a_at) / RFU RGS16 (11720944_at) / Fold change /veh RGS16 (11720944_at) / RFU, VPS4B / Fold change vs veh, VPS4B / RFU, CREB1 / Fold change vs veh, CREB1 / RFU, DNAJC13 / Fold change vs veh, DNAJC13 / RFU, GNAQ / Fold change vs veh, GNAQ / RFU, CDK5R1 / Fold change vs veh, CDK5R1 / RFU, ZRANB3 / Fold change vs veh, ZRANB3 / RFU, CUL4A / Fold change vs veh, CUL4A / RFU, CCNY / Fold change vs veh, CCNY / RFU, UFL1 / Fold change vs veh, UFL1 / RFU, COG3 / Fold change vs veh, COG3 / RFU, DIAPH2 / Fold change vs veh, DIAPH2 / RFU, SKA2 / Fold change vs veh, SKA2 / RFU, AFF3 / Fold change vs veh, AFF3 / RFU, LMF1 / Fold change vs veh, LMF1 / RFU, IPO11 / Fold change vs veh, IPO11 / RFU, DFFB / Fold change vs veh, DFFB / RFU, FOXP1 / Fold change vs veh, FOXP1 / RFU, CARD8 / Fold change vs veh, CARD8 / RFU, STRN3 / Fold change vs veh, STRN3 / RFU, ADK / Fold change vs veh, ADK / RFU, RASSF2 / Fold change vs veh, RASSF2 / RFU, WIPF1 / Fold change vs veh, WIPF1 / RFU, LARP1B / Fold change vs veh, LARP1B / RFU, RASA1 / Fold change vs veh, RASA1 / RFU, RB1 / Fold change vs veh, RB1 / RFU, PPFIA1 / Fold change vs veh, PPFIA1 / RFU, MAT2A / Fold change vs veh, MAT2A / RFU, CCT5 / Fold change vs veh, CCT5 / RFU, WDR92 / Fold change vs veh, WDR92 / RFU, CUX1 / Fold change vs veh, CUX1 / RFU, TTC7A / Fold change vs veh, TTC7A / RFU, TMEM135 / Fold change vs veh, TMEM135 / RFU, DEPTOR / Fold change vs veh, DEPTOR / RFU, CPM / Fold change vs veh, CPM / RFU, DNAJB6 / Fold change vs veh, DNAJB6 / RFU, CACNA2D3 / Fold change vs veh, CACNA2D3 / RFU, DTX4 / Fold change vs veh, DTX4 / RFU, TFCP2 / Fold change vs veh, TFCP2 / RFU, GMCL1 /// GMCL1P1 / Fold change vs veh, GMCL1 /// GMCL1P1 / RFU, AEBP2 / Fold change vs veh, AEBP2 / RFU, SNHG1 /// SNORD22 /// SNORD25 /// SNORD26 /// SNORD27 /// SNORD28 /// SNORD29 /// SNORD31 / Fold change vs veh, SNHG1 /// SNORD22 /// SNORD25 /// SNORD26 /// SNORD27 /// SNORD28 /// SNORD29 /// SNORD31 / Fold change (Aza/veh), C12orf56 (ProbeSet 11735607_a_at) / Fold change (ACY-1035/veh), C12orf56 (ProbeSet 11735607_a_at) / Fold change (Aza/veh), FGFR1OP (ProbeSet 11751329_s_at) / Fold change (ACY-1035/veh), FGFR1OP (ProbeSet 11751329_s_at) / Fold change (Aza/veh), VPS36 (ProbeSet 11739960_a_at) / Fold change (ACY-1035/veh), VPS36 (ProbeSet 11739960_a_at) / RFU SYPL1 (11715823_x_at) / Fold change /veh SYPL1 (11715823_x_at) / RFU IGFBP7 (11715501_s_at) / Fold change /veh IGFBP7 (11715501_s_at) / RFU REEP3 (11722064_at) / Fold change /veh REEP3 (11722064_at) / RFU IGLL1 (11728026_x_at) / Fold change /veh IGLL1 (11728026_x_at): dose or concentration left out as unconfirmed
Conditions: MV-4-11 cells, 48 hours

SMILES: Nc1ccc(-c2cccs2)cc1NC(=O)c1ccc2c(c1)cc(C1CC1)n2CCN1CCOCC1 [ACY-1035]
- Fold change /veh NR4A2 (11747474_a_at): 0.99
